Kd data for 8 compounds are collected here from patent US20250127904A1, “SIGLEC LIGANDS, CONJUGATES, AND METHODS OF USE THEREOF” (Osprey Biopharmaceuticals, Inc., priority 2023, published 2025).

Assay [1] concerns the target T1, biotinylated mouse siglec-2-Fc-Avi (Mus musculus, UniProt P35329).
T1 construct: made in house
T1 sequence (P35329 22-708 limits assumed): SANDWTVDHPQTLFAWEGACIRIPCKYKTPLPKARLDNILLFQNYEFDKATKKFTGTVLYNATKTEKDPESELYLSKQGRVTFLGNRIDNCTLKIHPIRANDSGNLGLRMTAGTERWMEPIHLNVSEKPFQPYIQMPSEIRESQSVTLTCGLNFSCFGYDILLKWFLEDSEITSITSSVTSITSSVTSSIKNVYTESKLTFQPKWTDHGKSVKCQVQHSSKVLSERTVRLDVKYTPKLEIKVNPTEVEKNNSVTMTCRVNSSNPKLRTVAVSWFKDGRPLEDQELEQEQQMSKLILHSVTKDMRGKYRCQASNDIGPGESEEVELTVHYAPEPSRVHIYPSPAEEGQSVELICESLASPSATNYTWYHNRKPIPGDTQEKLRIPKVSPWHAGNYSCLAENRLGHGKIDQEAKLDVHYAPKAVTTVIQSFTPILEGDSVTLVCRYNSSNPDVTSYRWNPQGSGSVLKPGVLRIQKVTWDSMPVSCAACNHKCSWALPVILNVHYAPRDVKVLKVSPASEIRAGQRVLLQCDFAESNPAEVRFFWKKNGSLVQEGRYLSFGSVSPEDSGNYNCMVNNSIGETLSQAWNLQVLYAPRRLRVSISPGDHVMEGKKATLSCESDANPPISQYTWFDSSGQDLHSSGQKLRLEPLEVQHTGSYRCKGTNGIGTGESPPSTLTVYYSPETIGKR
In words: SPR binding to mouse siglec-2/CD22. Conditions: steady-state analysis, read-out: Mouse CD22 affinity. The protocol:
(§1) The following proteins were used for CD22 ligand binding: biotinylated human siglec-2/CD22 protein-His-Avitag (Acro Biosystems, Cat #SI2-H82E3), biotinylated mouse siglec-2-Fc-Avi (in-house production), and recombinant cynomolgus siglec-2/CD22 His-tag (R&D systems, Cat #9864-SL-050). Prior to immobilization, CD22 proteins were treated with SialoExo (Genovis, Cat #G1-SM1-020) for 4 hours at 37° C. to remove native sialic acid residues.
(§2) Capture of biotinylated CD22 constructs was performed using a Cytiva SA chip (BR100398) on a Biacore 8K instrument. Human siglec 2 was immobilized on channels 1-4 and mouse siglec 2 on channels 5-8 on the active flow cell (2) and the reference flow cell (1) was immobilized with biotinylated human FGFR2 Fc Avi, an unrelated protein, to account for any nonspecific binding. Human siglec 2 and Mouse siglec 2 were diluted in running buffer to 20 μg/mL and injected on the active flow cell (2) for 300 seconds at 5 μL/min, yielding about 3500 RU of captured constructs.
(§3) Binding experiments of siglec-ligand conjugated proteins or Siglec ligand compounds were performed on the surfaces prepared above in 10 mM HEPES, 150 mM NaCl, 0.05% Tween-20, pH 7.5, 1% DMSO as the running buffer. Compounds were serially diluted in running buffer from 50 μM to 97.6 nM and injected over both the reference and active flow cells for 90 seconds at 30 μL/min. The compounds were then allowed to dissociate from the surface for 120 seconds. No regeneration was required as the compounds completely dissociated from the surface after 30 seconds. Solvent correction was performed using 0.5, 1, 1.5, and 2% DMSO spike into running buffer without DMSO. Data was analyzed using steady-state analysis in Biacore Insight Evaluation Software, version 3.0.
(In SPR one partner is held on a chip, and binding of the other changes the refractive index at the surface.)

The target in assay [2] is T2, biotinylated human siglec-2/CD22 protein-His-Avitag (Homo sapiens, UniProt P20273).
T2 construct: purchased Acro Biosystems SI2-H82E3
T2 sequence (P20273 20-847): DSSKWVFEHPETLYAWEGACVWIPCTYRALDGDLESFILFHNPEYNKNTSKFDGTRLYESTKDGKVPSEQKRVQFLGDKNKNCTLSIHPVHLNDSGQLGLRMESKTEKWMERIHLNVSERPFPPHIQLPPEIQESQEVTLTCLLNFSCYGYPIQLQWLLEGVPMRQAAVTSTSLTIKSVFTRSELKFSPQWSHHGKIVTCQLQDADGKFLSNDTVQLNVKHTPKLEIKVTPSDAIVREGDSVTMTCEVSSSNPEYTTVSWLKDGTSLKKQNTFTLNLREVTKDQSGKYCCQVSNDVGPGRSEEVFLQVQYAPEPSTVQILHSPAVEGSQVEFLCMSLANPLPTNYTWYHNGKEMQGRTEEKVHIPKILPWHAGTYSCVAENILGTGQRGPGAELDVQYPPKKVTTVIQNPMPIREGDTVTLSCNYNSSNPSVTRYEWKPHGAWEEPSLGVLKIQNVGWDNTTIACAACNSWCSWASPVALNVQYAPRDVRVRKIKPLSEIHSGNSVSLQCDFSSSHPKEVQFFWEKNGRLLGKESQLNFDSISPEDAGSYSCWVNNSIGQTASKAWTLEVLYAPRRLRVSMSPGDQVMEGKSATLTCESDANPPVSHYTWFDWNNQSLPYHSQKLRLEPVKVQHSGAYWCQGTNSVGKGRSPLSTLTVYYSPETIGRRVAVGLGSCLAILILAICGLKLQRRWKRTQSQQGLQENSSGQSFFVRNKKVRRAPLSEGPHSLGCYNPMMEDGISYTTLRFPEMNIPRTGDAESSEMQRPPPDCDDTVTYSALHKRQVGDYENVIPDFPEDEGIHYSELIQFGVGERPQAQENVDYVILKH
In words: SPR binding to human siglec-2/CD22. As to conditions: steady-state analysis, read-out: Human CD22 affinity. As for the experimental part: as §1, §2, §3

In assay [3] the target is recombinant cynomolgus siglec-2/CD22 His-tag (Macaca fascicularis, UniProt A0A2K5WCZ6). Put plainly: SPR binding to cynomolgus siglec-2/CD22. Conditions: steady-state analysis, read-out: Cyno CD22 affinity. The protocol: as §1
recombinant cynomolgus siglec-2/CD22 His-tag, sequence (A0A2K5WCZ6 entry or part of it): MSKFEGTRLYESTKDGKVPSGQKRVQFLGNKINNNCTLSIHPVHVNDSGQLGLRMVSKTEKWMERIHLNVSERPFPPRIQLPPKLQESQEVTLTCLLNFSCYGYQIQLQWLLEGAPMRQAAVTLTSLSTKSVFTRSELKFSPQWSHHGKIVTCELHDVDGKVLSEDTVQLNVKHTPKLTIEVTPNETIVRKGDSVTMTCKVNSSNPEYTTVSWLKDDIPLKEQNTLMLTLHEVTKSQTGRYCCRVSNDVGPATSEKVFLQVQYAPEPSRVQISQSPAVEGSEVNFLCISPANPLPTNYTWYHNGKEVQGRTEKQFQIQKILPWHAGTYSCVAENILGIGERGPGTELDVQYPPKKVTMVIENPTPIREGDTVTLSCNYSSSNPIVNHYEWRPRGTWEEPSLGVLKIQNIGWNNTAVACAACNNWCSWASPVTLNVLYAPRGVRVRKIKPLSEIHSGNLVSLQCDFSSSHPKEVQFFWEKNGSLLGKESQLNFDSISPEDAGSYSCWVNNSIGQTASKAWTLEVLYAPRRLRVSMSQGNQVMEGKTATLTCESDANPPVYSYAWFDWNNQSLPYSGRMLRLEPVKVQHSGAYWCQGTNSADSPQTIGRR
Surface preparation for cyno CD22 protein consisted of amine coupling to Cytiva CM5 chip (Cytiva, Cat #BR100530) using the Cytiva amine coupling kit Type 2 (Cytiva, Cat #BR100633). Following the standard amine coupling protocols, EDC and NHS from the kit were mixed 1:1 and injected over flow cells 1 and 2. Cyno CD22 was then immobilized by injecting 10 μg/mL in Sodium Acetate, pH 5.5 onto flow cell (2) for 420 seconds at 10 uL/min, yielding approximately 2500 RU of captured protein. Any active carboxy groups were then capped with 1M Ethanolamine, pH 8.5 for 420 s on flow cells 1 and 2.
as §3

For the compound `C#CCOCCOCCOCCC(=O)N[C@H]1[C@H]([C@H](O)[C@H](O)CNC(=O)Cc2ccc(Cl)cc2)O[C@@](OCc2ccccc2)(C(=O)O)C[C@@H]1O` [Compound 21, (2R,4S,5R,6R)-2-(benzyloxy)-6-((1R,2R)-3-(2-(4-chlorophenyl)acetamido)-1,2-dihydroxypropyl)-4-hydroxy-5-(3-(2-(2-(prop-2-yn-1-yloxy)ethoxy)ethoxy)propanamido)tetrahydro-2H-pyran-2-carboxylic acid], the Kd in assay [1] is more than 10000 nM; in assay [2], 1000 to 10000 nM; in assay [3], 1000 to 10000 nM.
On to `C#CCOCCOCCOCCOCCOCCNC(=O)N[C@H]1[C@H]([C@H](O)[C@H](O)CNC(=O)Cc2ccc(Cl)cc2)O[C@@](OCc2ccccc2)(C(=O)O)C[C@@H]1O` [Compound 22, (2R,4S,5R,6R)-5-(3-(3,6,9,12,15-pentaoxaoctadec-17-yn-1-yl)ureido)-2-(benzyloxy)-6-((1R,2R)-3-(2-(4-chlorophenyl)acetamido)-1,2-dihydroxypropyl)-4-hydroxytetrahydro-2H-pyran-2-carboxylic acid], for which the figures for the Kd in assay [1], in assay [2] and in assay [3] were 1000 to 10000 nM, more than 10000 nM and 1000 to 10000 nM, respectively.
For the compound `C#Cc1ccc(CC(=O)NC[C@@H](O)[C@@H](O)[C@@H]2O[C@@](OCCOCCOCCOC)(C(=O)O)C[C@H](O)[C@H]2NC(=O)CO)cc1` [Compound 25, (2R,4S,5R,6R)-6-((1R,2R)-3-(2-(4-ethynylphenyl)acetamido)-1,2-dihydroxypropyl)-4-hydroxy-5-(2-hydroxyacetamido)-2-(2-(2-(2-methoxyethoxy)ethoxy)ethoxy)tetrahydro-2H-pyran-2-carboxylic acid], the Kd in assay [1], in assay [2] and in assay [3] was 1000 to 10000 nM each time.
On to `C#Cc1ccc(CC(=O)NC[C@@H](O)[C@@H](O)[C@@H]2O[C@@](OCCCCCCc3cn(CCOCCOC)nn3)(C(=O)O)C[C@H](O)[C@H]2NC(=O)CO)cc1` [Compound 27, (2R,4S,5R,6R)-6-((1R,2R)-3-(2-(4-ethynylphenyl)acetamido)-1,2-dihydroxypropyl)-4-hydroxy-5-(2-hydroxyacetamido)-2-((6-(1-(2-(2-methoxyethoxy)ethyl)-1H-1,2,3-triazol-4-yl)hexyl)oxy)tetrahydro-2H-pyran-2-carboxylic acid], for which the Kd in assay [1], in assay [2] and in assay [3] was less than 1000 nM in each case.
`C#Cc1ccc(CC(=O)NC[C@@H](O)[C@@H](O)[C@@H]2O[C@@](OCCCCCCn3cc(COCCOC)nn3)(C(=O)O)C[C@H](O)[C@H]2NC(=O)CO)cc1` [Compound 28, (2R,4S,5R,6R)-6-((1R,2R)-3-(2-(4-ethynylphenyl)acetamido)-1,2-dihydroxypropyl)-4-hydroxy-5-(2-hydroxyacetamido)-2-((6-(4-((2-methoxyethoxy)methyl)-1H-1,2,3-triazol-1-yl)hexyl)oxy)tetrahydro-2H-pyran-2-carboxylic acid]: the Kd in assay [1], in assay [2] and in assay [3] was less than 1000 nM throughout.
On to `CCCNC(=O)CCOCCOCCOCCOCCn1cc(-c2ccc(CC(=O)NC[C@@H](O)[C@@H](O)[C@@H]3O[C@@](OCCCCCCOC)(C(=O)O)C[C@H](O)[C@H]3NC(=O)CO)cc2)nn1` [Compound 52, (2R,4S,5R,6R)-6-((1R,2R)-1,2-dihydroxy-3-(2-(4-(1-(15-oxo-3,6,9,12-tetraoxa-16-azanonadecyl)-1H-1,2,3-triazol-4-yl)phenyl)acetamido)propyl)-4-hydroxy-5-(2-hydroxyacetamido)-2-((6-methoxyhexyl)oxy)tetrahydro-2H-pyran-2-carboxylic acid], for which the Kd in assay [1], in assay [2] and in assay [3] was 1000 to 10000 nM throughout.
Turning to `CCCNC(=O)CCOCCOCCOCCOCCn1cc(-c2ccc(CC(=O)NC[C@@H](O)[C@@H](O)[C@@H]3O[C@@](OCCCCCCNc4c(NCCOC)c(=O)c4=O)(C(=O)O)C[C@H](O)[C@H]3NC(=O)CO)cc2)nn1` [Compound 53, (2R,4S,5R,6R)-6-((1R,2R)-1,2-dihydroxy-3-(2-(4-(1-(15-oxo-3,6,9,12-tetraoxa-16-azanonadecyl)-1H-1,2,3-triazol-4-yl)phenyl)acetamido)propyl)-4-hydroxy-5-(2-hydroxyacetamido)-2-((6-((2-((2-methoxyethyl)amino)-3,4-dioxocyclobut-1-en-1-yl)amino)hexyl)oxy)tetrahydro-2H-pyran-2-carboxylic acid], the Kd in assay [1] is 1000 to 10000 nM; in assay [2], less than 1000 nM; in assay [3], less than 1000 nM.
Turning to `CCCNC(=O)CCOCCOCCOCCOCCn1cc(-c2ccc(CC(=O)NC[C@@H](O)[C@@H](O)[C@@H]3O[C@@](OCCCCCCn4cc(COCCOC)nn4)(C(=O)O)C[C@H](O)[C@H]3NC(=O)CO)cc2)nn1` [Compound 55, (2R,4S,5R,6R)-6-((1R,2R)-1,2-dihydroxy-3-(2-(4-(1-(15-oxo-3,6,9,12-tetraoxa-16-azanonadecyl)-1H-1,2,3-triazol-4-yl)phenyl)acetamido)propyl)-4-hydroxy-5-(2-hydroxyacetamido)-2-((6-(4-((2-methoxyethoxy)methyl)-1H-1,2,3-triazol-1-yl)hexyl)oxy)tetrahydro-2H-pyran-2-carboxylic acid], the Kd in assay [1] is 1000 to 10000 nM; in assay [2], less than 1000 nM; in assay [3], 1000 to 10000 nM.
